Test results taken from ChEMBL document CHEMBL3414446, “Neoechinulin B and its analogues as potential entry inhibitors of influenza viruses, targeting viral hemagglutinin” (Eur J Med Chem, 2015).
The source made the active and inactive calls. No cut-off for these calls is given here.

Experiments:
[1] = Antiviral activity against influenza A virus A/WSN/33 (H1N1) infected in MDCK cells assessed as reduction in cytopathic effect at 100 uM after 48 hrs by plaque assay; type: functional, Influenza A virus (A/WSN/1933(H1N1))
[2] = Cytotoxicity against MDCK cells assessed as cell growth after 40 hrs by CellTiter-Glo assay; type: cell-based, Canis lupus familiaris; conditions: dog
[3] = target: Hemagglutinin (Influenza A virus) (UniProt B4URE7); test: Inhibition of influenza A virus A/WSN/33 (H1N1) Hemagglutinin 1 binding to sialic acid receptor assessed as response unit at 1.25 ug/ml by surface plasmon resonance assay; conditions: Influenza A virus (A/WSN/1933(H1N1))
[4] = target: Hemagglutinin (Influenza A virus) (UniProt B4URE7); test: Inhibition of influenza A virus A/WSN/33 (H1N1) Hemagglutinin 1 binding to sialic acid receptor assessed as response unit at 5 ug/ml by surface plasmon resonance assay; conditions: Influenza A virus (A/WSN/1933(H1N1))
[5] = target: Hemagglutinin (Influenza A virus) (UniProt B4URE7); test: Inhibition of influenza A virus A/WSN/33 (H1N1) Hemagglutinin 1 binding to sialic acid receptor assessed as response unit at 2.5 ug/ml by surface plasmon resonance assay; conditions: Influenza A virus (A/WSN/1933(H1N1))
[6] = target: Hemagglutinin (Influenza A virus, UniProt B4URE7); test: Binding affinity to influenza A virus A/WSN/33 (H1N1) Hemagglutinin by surface Plasmon resonance assay; parameters: species or system Influenza A virus (A/WSN/1933(H1N1))
[7] = target: Hemagglutinin (Influenza A virus) (UniProt B4URE7); test: Inhibition of influenza A virus A/WSN/33 (H1N1) Hemagglutinin 1 binding to sialic acid receptor assessed as response unit at 0.625 ug/ml by surface plasmon resonance assay; conditions: Influenza A virus (A/WSN/1933(H1N1))
[8] = tested on: Influenza A virus (A/WSN/1933(H1N1)); test: Inhibition of influenza A virus A/WSN/33 (H1N1) Hemagglutinin 1 binding to sialic acid receptor assessed as response unit at 20 ug/ml by surface plasmon resonance assay
[9] = tested on: Influenza A virus (A/WSN/1933(H1N1)); test: Inhibition of influenza A virus A/WSN/33 (H1N1) Hemagglutinin 1 binding to sialic acid receptor assessed as response unit at 10 ug/ml by surface plasmon resonance assay
[10] = Binding affinity to influenza A virus A/WSN/33 (H1N1) Hemagglutinin 1 binding to sialic acid receptor by surface plasmon resonance assay; parameters: species or system Influenza A virus (A/WSN/1933(H1N1))
[11] = (§1) Antiviral activity against influenza A virus A/WSN/33 (H1N1) infected in MDCK cells assessed as inhibition of plaque formation after 3 days at 37 degC; type: functional, cell-based, Influenza A virus (A/WSN/1933(H1N1)); conditions: 72 h
[12] = Antiviral activity against influenza A virus A/WSN/33 (H1N1) infected in MDCK cells assessed as reduction in cytopathic effect after 48 hrs by plaque assay; type: functional, cell-based, Influenza A virus (A/WSN/1933(H1N1))
[13] = tested on: MDCK; test: Antiviral activity against influenza A virus A/WSN/33 (H1N1) infected in MDCK cells assessed as inhibition of plaque formation for 1 hr at 4 degC; type: functional, cell-based; conditions: Influenza A virus (A/WSN/1933(H1N1))
[14] = tested on: MDCK; test: as §1; type: functional, cell-based; conditions: Influenza A virus (A/WSN/1933(H1N1))
[15] = tested on: MDCK; test: Antiviral activity against influenza A virus A/WSN/33 (H1N1) infected in MDCK cells assessed as nucleoprotein level in infected cells at 0 to 2 hrs virus entry step at 100 uM by Time-of-addition experiment; type: functional, cell-based; conditions: Influenza A virus (A/WSN/1933(H1N1))
[16] = tested on: MDCK; test: Antiviral activity against influenza A virus A/WSN/33 (H1N1) infected in MDCK cells assessed as nucleoprotein level in infected cells at […] progeny virion release step at 100 uM by Time-of-addition experiment; type: functional, cell-based; conditions: Influenza A virus (A/WSN/1933(H1N1))
[17] = tested on: Influenza A virus (A/WSN/1933(H1N1)); test: Inhibition of influenza A virus A/WSN/33 (H1N1) […] binding to sialic acid receptor by surface Plasmon resonance assay
[18] = target: Hemagglutinin (Influenza A virus) (UniProt B4URE7); test: Inhibition of influenza A virus A/WSN/33 (H1N1) Hemagglutinin transfected in Human HeLa cells assessed as polykaryon formation at 100 uM after 15 mins by microscopy; type: cell-based; conditions: Influenza A virus (A/WSN/1933(H1N1))
[19] = tested on: MDCK; test: Antiviral activity against influenza A virus A/WSN/33 (H1N1) infected in MDCK cells assessed as nucleoprotein level in infected cells at 2 to 8 hrs viral genome replication and translation step at 100 uM by Time-of-addition experiment; type: functional, cell-based; conditions: Influenza A virus (A/WSN/1933(H1N1))
[20] = tested on: Influenza A virus (A/WSN/1933(H1N1)); test: Inhibition of influenza A virus A/WSN/33 (H1N1)-induced aggregation of chicken erythrocytes after 30 mins by Hemagglutination inhibition assay; type: functional

C=CC(C)(C)c1[nH]c2c(CC=C(C)C)cc(CC=C(C)C)cc2c1C[C@@H]1NC(=O)[C@H](C)NC1=O [ECHINULIN]
inhibition at 100 µM [1]: 13%
CC50 at 40 h [2]: > 200 µM

C=CC(C)(C)c1[nH]c2ccccc2c1/C=C1\NC(=O)[C@H](C)NC1=O [NEOECHINULIN A]
Activity [3]: 4.5
Activity [4]: 26.5
Activity [5]: 12.3
Kd [6]: 98 µM
Activity [7]: 1

C[C@@H]1NC(=O)[C@H](Cc2c[nH]c3ccccc23)NC1=O
inhibition at 100 µM [1]: 2.31%
CC50 at 40 h [2]: > 200 µM

COc1cc(/C=C/C(=O)CC(=O)/C=C/c2ccc(O)c(OC)c2)ccc1O [CURCUMIN]
Activity [3]: 2.7
Activity [8]: 78.8
Activity [9]: 36.4
Activity [4]: 16.1
Activity [5]: 6.8
Kd [10]: 507 µM
Activity [7]: 0.8

C=CC(C)(C)c1[nH]c2c(C[C@H](O)C(C)(C)O)cccc2c1/C=C1\NC(=O)[C@H](C)NC1=O
inhibition at 100 µM [1]: 15.1%
CC50 at 40 h [2]: > 200 µM

CCOC(=O)c1c(CSc2ccccc2)n(C)c2cc(Br)c(O)c(CN(C)C)c12 [UMIFENOVIR]
Activity [3]: 1.2
Activity [8]: 102
Activity [9]: 48.7
Activity [4]: 20.7
Activity [5]: 7.5
Kd [10]: 0.081 µM
Activity [7]: -1.8

NC(=O)c1ncn([C@@H]2O[C@H](CO)[C@@H](O)[C@H]2O)n1 [RIBAVIRIN]
CC50 at 40 h [2]: > 200 µM

C=CC(C)(C)c1[nH]c2ccccc2c1C[C@@H]1NC(=O)[C@H](CO)NC1=O
inhibition at 100 µM [1]: 13%
CC50 at 40 h [2]: > 200 µM

CCOC(=O)C1=C[C@@H](OC(CC)CC)[C@H](NC(C)=O)[C@@H](N)C1 [OSELTAMIVIR]
IC50 [11]: 15 µM
CC50 at 40 h [2]: > 200 µM
IC50 [12]: 46.5 µM

C=CC(C)(C)c1[nH]c2c(CC=C(C)C)cccc2c1/C=c1\[nH]c(=O)c(=C)[nH]c1=O
inhibition at 100 µM [1]: 100%
CC50 at 40 h [2]: > 200 µM
IC50 [12]: 51.4 µM

C=CC(C)(C)c1[nH]c2ccccc2c1/C=c1\[nH]c(=O)c(=C)[nH]c1=O [NEOECHINULIN B]
inhibition [13]: Dose-dependent effect
Activity [3]: -4
inhibition [14]: Dose-dependent effect
Activity [15]: Active
inhibition [16]: inactive
Activity [8]: 66.9
Activity [17]: Active
inhibition at 100 µM [1]: 70.5%
Activity [18]: inactive
Activity [9]: 27.7
Activity [4]: 8.9
Activity [5]: 0.8
CC50 at 40 h [2]: > 200 µM
Kd [6]: 32 µM
inhibition [19]: inactive
Kd [10]: 451 µM
Activity [7]: -3.9
IC50 [12]: 27.4 µM
inhibition [20]: Dose-dependent effect

C=CC(C)(C)c1[nH]c2ccccc2c1C(OC)[C@@H]1NC(=O)[C@H](C)NC1=O (stereo not given in full)
inhibition at 100 µM [1]: 18.3%
CC50 at 40 h [2]: > 200 µM

C=CC(C)(C)c1[nH]c2ccc(C[C@H](O)C(C)(C)OC)cc2c1/C=c1\[nH]c(=O)c(=C)[nH]c1=O
inhibition at 100 µM [1]: 5%
CC50 at 40 h [2]: > 200 µM

C=CC(C)(C)c1[nH]c2ccccc2c1C[C@@H]1NC(=O)[C@H](C)NC1=O [PREECHINULIN]
inhibition at 100 µM [1]: 14.9%
CC50 at 40 h [2]: > 200 µM

C=CC(C)(C)c1[nH]c2ccc(C[C@H](O)C(C)(C)OC)cc2c1/C=C1\NC(=O)[C@H](C)NC1=O
inhibition at 100 µM [1]: 15.2%
CC50 at 40 h [2]: > 200 µM

C=CC(C)(C)c1[nH]c2ccccc2c1/C=C1\NC(=O)[C@H](CO)NC1=O [CRISTATUMIN A]
inhibition at 100 µM [1]: 20.6%
CC50 at 40 h [2]: > 200 µM

NC12CC3CC(CC(C3)C1)C2 [AMANTADINE]
CC50 at 40 h [2]: > 200 µM

C=CC(C)(C)c1[nH]c2ccccc2c1/C=C1\NC(=O)[C@@](CO)(OC)NC1=O
inhibition at 100 µM [1]: 14.3%
CC50 at 40 h [2]: > 200 µM

C=CC(C)(C)c1[nH]c2ccc(C[C@H](O)C(C)(C)OC)cc2c1C[C@@H]1NC(=O)[C@H](C)NC1=O
inhibition at 100 µM [1]: 5.69%
CC50 at 40 h [2]: > 200 µM

C=CC(C)(C)c1[nH]c2ccc(C[C@H](O)C(C)(C)O)cc2c1/C=C1\NC(=O)C(=O)NC1=O
inhibition at 100 µM [1]: 6.45%
CC50 at 40 h [2]: > 200 µM

C=CC(C)(C)c1[nH]c2ccccc2c1C(O)[C@@H]1NC(=O)[C@H](C)NC1=O (stereo not given in full)
inhibition at 100 µM [1]: 3.38%
CC50 at 40 h [2]: > 200 µM

C=CC(C)(C)n1cc(C[C@@H]2NC(=O)[C@H](C)NC2=O)c2ccccc21
inhibition at 100 µM [1]: 17.9%
CC50 at 40 h [2]: > 200 µM

CC(C)=CCn1cc(C[C@@H]2NC(=O)[C@H](C)NC2=O)c2ccccc21
inhibition at 100 µM [1]: 25.4%
CC50 at 40 h [2]: > 200 µM

C=CC(C)(C)c1[nH]c2ccc(CC=C(C)C)cc2c1/C=C1\NC(=O)[C@H](C)NC1=O [ISOECHINULIN A]
inhibition at 100 µM [1]: 77.6%
CC50 at 40 h [2]: > 200 µM
IC50 [12]: 42.7 µM

C=CC(C)(C)c1[nH]c2ccc(C[C@H](OC(C)=O)C(C)(C)O)cc2c1/C=C1\NC(=O)[C@H](C)NC1=O
inhibition at 100 µM [1]: 2.5%
CC50 at 40 h [2]: > 200 µM

C=CC(C)(C)c1[nH]c2ccccc2c1/C=C1\NC(=O)[C@@](C)(OC)NC1=O
inhibition at 100 µM [1]: 82.4%
CC50 at 40 h [2]: > 200 µM
IC50 [12]: 68.8 µM

C=CC(C)(C)c1[nH]c2ccc(C[C@H](OC(C)=O)C(C)(C)O)cc2c1C[C@@H]1NC(=O)[C@H](C)NC1=O
inhibition at 100 µM [1]: 3.48%
CC50 at 40 h [2]: > 200 µM

C=CC(C)(C)c1[nH]c2ccccc2c1/C=C1\NC(=O)C(=O)NC1=O
inhibition at 100 µM [1]: 6.69%
CC50 at 40 h [2]: > 200 µM

C=CC(C)(C)c1[nH]c2c(C[C@H](O)C(C)(C)OC)cccc2c1/C=C1\NC(=O)[C@H](C)NC1=O
inhibition at 100 µM [1]: 15.6%
CC50 at 40 h [2]: > 200 µM
